± gives the standard deviation of the averaged measurements.

What all share (experiment): level (log10 ratio to DMSO vehicle control); higher = higher biomarker level / cell amount than vehicle control
Compound in experiment [1]: C=C(C)C(=O)OCCC(F)(F)C(F)(F)C(F)(F)C(F)(F)C(F)(C(F)(F)F)C(F)(F)F [(Perfluoro-5-methylhexyl)ethyl 2-methylprop-2-enoate]
Conditions: in DMSO. The protocol: (§1)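 BioMAP Diversity Plus panel of 12 human primary cell co-culture systems (3C, 4H, LPS, SAg, BT, BF4T, BE3C, CASM3C, HDF3CGF, KF3CT, MyoF, Mphg). Compounds were added 1 h before stimulation and left for 24 h (MyoF 48 h; BT 72 h for soluble read-outs or 6 d for IgG). Biomarkers were read by ELISA, cytotoxicity by SRB, PBMC viability and proliferation by Alamar Blue. Each well value was divided by the mean of 8 DMSO control wells on the same plate and log10 transformed; duplicate blinded samples were tested at 4 concentrations.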

Compound in experiment [2]: C=CC(F)(F)C(F)(F)C(F)(F)C(F)(F)C(F)(F)C(F)(F)C(F)(F)C(F)(F)C=C [1,8-Divinylperfluorooctane]
Conditions: in DMSO. The protocol:
as §1

Compound in experiment [3]: FC(F)(F)C(F)(F)C(F)(F)C(F)(F)C(F)(F)C(F)(F)C(F)(F)C(F)(F)CCS [2-(Perfluorooctyl)ethanthiol]
Conditions: in DMSO. The protocol: as §1

Compound in experiment [4]: FC(F)C(F)(F)COCC1CO1 [((2,2,3,3-Tetrafluoropropoxy)methyl)oxirane]
Conditions: in DMSO. The protocol:
as §1

Compound in experiment [5]: NCC(F)(F)C(F)(F)C(F)(F)C(F)(F)C(F)(F)C(F)(F)C(F)(F)F [1H,1H-Perfluorooctylamine]
Conditions: in DMSO. The protocol: as §1

Compound in experiment [6]: O=C(O)C(F)(F)C(F)(F)C(F)(F)C(F)(F)C(F)(F)C(F)(F)C(F)(F)C(F)F [9-H-Perfluorononanoic acid]
Conditions: in DMSO. The protocol:
as §1

Compound in experiment [7]: O=C(O)C(F)(F)C(F)(F)C(F)(F)OC(F)(C(F)(F)F)C(F)(F)F [Perfluoro-4-isopropoxybutanoic acid]
Conditions: in DMSO. The protocol:
as §1

Compound in experiment [8]: OCCCC(F)(F)C(F)(F)C(F)(F)C(F)(F)C(F)(F)C(F)(F)C(F)(F)F [7:3 Fluorotelomer alcohol]
Conditions: 6700 nM; in DMSO. On the procedure: as §1

Turning to HDF3CGF:SRB, the “level (log10)” value in experiment [1] (6700 nM) is 0.0055 ± 0.0092; in experiment [1] (20000 nM) it was 0.008 ± 0.0028; in experiment [2] (6700 nM), 0.025 ± 0.051; in experiment [2] (20000 nM), 0.069 ± 0.14; in experiment [3] (6700 nM) it was 0.0135 ± 0.023; in experiment [3] (20000 nM), 0.011 ± 0.0085. Besides, the “level (log10)” value in experiment [4] (6700 nM) is 0.004 ± 0.0057; in experiment [4] (20000 nM), -0.002 ± 0.02; in experiment [4] (60000 nM) it was -0.011 ± 0.1; in experiment [5] (6700 nM), -0.0315 ± 0.0078; in experiment [5] (20000 nM), 0.0335 ± 0.046; in experiment [5] (60000 nM), 0.0315 ± 0.12. Further, the “level (log10)” value was 0.022 ± 0.023 in experiment [6] (6700 nM); 0.0825 ± 0.03 in experiment [6] (20000 nM); 0.148 ± 0.034 in experiment [6] (60000 nM); -0.0125 ± 0.025 in experiment [7] (6700 nM); 0.0115 ± 0.037 in experiment [7] (20000 nM); -0.0055 ± 0.015 in experiment [7] (60000 nM). Also, the “level (log10)” value in experiment [8] was -0.014 ± 0.027.

Turning to HDF3CGF:TIMP-1, the “level (log10)” value in experiment [1] (6700 nM) is -0.035 ± 0.0071; in experiment [1] (20000 nM), -0.0345 ± 0.0078; in experiment [2] (6700 nM), 0.014 ± 0.016; in experiment [2] (20000 nM), 0.008 ± 0.017; in experiment [3] (6700 nM), -0.017 ± 0.013; in experiment [3] (20000 nM) it was -0.035 ± 0.0042. Further, the “level (log10)” value in experiment [4] (6700 nM) was 0.0075 ± 0.023; in experiment [4] (20000 nM) it was 0.002 ± 0.011; in experiment [4] (60000 nM), 0 ± 0.055; in experiment [5] (6700 nM), -0.0265 ± 0.077; in experiment [5] (20000 nM), -0.0335 ± 0.036; in experiment [5] (60000 nM), -0.0405 ± 0.036. The “level (log10)” value in experiment [6] (6700 nM) is -0.04 ± 0.0042; in experiment [6] (20000 nM) it was 0.008 ± 0.0071; in experiment [6] (60000 nM), 0.0385 ± 0.0021; in experiment [7] (6700 nM), -0.023 ± 0.048; in experiment [7] (20000 nM), -0.0155 ± 0.043; in experiment [7] (60000 nM), 0.018 ± 0.11. The “level (log10)” value in experiment [8] is -0.012.

As for HDF3CGF:TIMP-2, the “level (log10)” value in experiment [1] (6700 nM) was 0.0075 ± 0.026; in experiment [1] (20000 nM) it was -0.0295 ± 0.019; in experiment [2] (6700 nM), 0.025 ± 0.013; in experiment [2] (20000 nM), -0.0115 ± 0.012; in experiment [3] (6700 nM), -0.0305 ± 0.073; in experiment [3] (20000 nM), -0.0265 ± 0.069. Moreover, the “level (log10)” value in experiment [4] (6700 nM) is -0.018 ± 0.0057; in experiment [4] (20000 nM) it was -0.008 ± 0.0071; in experiment [4] (60000 nM), -0.0275 ± 0.0078; in experiment [5] (6700 nM), -0.03 ± 0.059; in experiment [5] (20000 nM) it was -0.013 ± 0.052; in experiment [5] (60000 nM), -0.0245 ± 0.016. The “level (log10)” value was -0.07 ± 0.086 in experiment [6] (6700 nM); -0.0755 ± 0.028 in experiment [6] (20000 nM); -0.0595 ± 0.049 in experiment [6] (60000 nM); -0.008 ± 0.017 in experiment [7] (6700 nM); 0.0335 ± 0.022 in experiment [7] (20000 nM); -0.004 ± 0.023 in experiment [7] (60000 nM). Also, the “level (log10)” value in experiment [8] was 0.0005 ± 0.013.

For the test system KF3CT:CCL2/MCP-1, the “level (log10)” value in experiment [1] (6700 nM) is -0.0235 ± 0.0092; in experiment [1] (20000 nM), -0.0125 ± 0.037; in experiment [2] (6700 nM), -0.0165 ± 0.016; in experiment [2] (20000 nM), 0.009 ± 0.042; in experiment [3] (6700 nM) it was -0.0125 ± 0.011; in experiment [3] (20000 nM), -0.0285 ± 0.0092. Besides, the “level (log10)” value in experiment [4] (6700 nM) was -0.0245 ± 0.0021; in experiment [4] (20000 nM), -0.0045 ± 0.026; in experiment [4] (60000 nM), 0.012 ± 0.013; in experiment [5] (6700 nM), -0.0055 ± 0.043; in experiment [5] (20000 nM), -0.021 ± 0.013; in experiment [5] (60000 nM), 0.0045 ± 0.0078. The “level (log10)” value is -0.04 ± 0.0028 in experiment [6] (6700 nM); -0.0335 ± 0.0078 in experiment [6] (20000 nM); 0.009 ± 0.065 in experiment [6] (60000 nM); 0.0235 ± 0.039 in experiment [7] (6700 nM); 0.032 ± 0.018 in experiment [7] (20000 nM); 0.023 ± 0.052 in experiment [7] (60000 nM). In experiment [8], the “level (log10)” value was -0.0105 ± 0.005.

In the case of KF3CT:CD54/ICAM-1, the “level (log10)” value in experiment [1] (6700 nM) was -0.01 ± 0.0042; in experiment [1] (20000 nM), -0.0175 ± 0.0021; in experiment [2] (6700 nM), -0.0145 ± 0.00071; in experiment [2] (20000 nM), -0.002; in experiment [3] (6700 nM), -0.001 ± 0.034; in experiment [3] (20000 nM) it was -0.002 ± 0.0085. The “level (log10)” value in experiment [4] (6700 nM) was -0.0065 ± 0.015; in experiment [4] (20000 nM), -0.012 ± 0.0085; in experiment [4] (60000 nM), -0.014 ± 0.016; in experiment [5] (6700 nM) it was 0; in experiment [5] (20000 nM) it was 0.0015 ± 0.005; in experiment [5] (60000 nM) it was 0.011 ± 0.0057. Also, the “level (log10)” value in experiment [6] (6700 nM) was -0.0045 ± 0.016; in experiment [6] (20000 nM) it was -0.024 ± 0.0014; in experiment [6] (60000 nM) it was -0.0365 ± 0.0064; in experiment [7] (6700 nM) it was 0.001 ± 0.016; in experiment [7] (20000 nM), -0.035 ± 0.0071; in experiment [7] (60000 nM), -0.0495 ± 0.016. The “level (log10)” value in experiment [8] was -0.022 ± 0.0071.

As to KF3CT:CXCL8/IL-8, the “level (log10)” value in experiment [1] (6700 nM) was -0.013 ± 0.037; in experiment [1] (20000 nM), 0.006 ± 0.03; in experiment [2] (6700 nM), -0.0035 ± 0.033; in experiment [2] (20000 nM) it was 0.011 ± 0.0057; in experiment [3] (6700 nM), -0.026 ± 0.034; in experiment [3] (20000 nM), -0.028 ± 0.037. For the same test system, the “level (log10)” value was -0.024 ± 0.02 in experiment [4] (6700 nM); -0.0035 ± 0.0092 in experiment [4] (20000 nM); -0.001 ± 0.0071 in experiment [4] (60000 nM); -0.0205 ± 0.035 in experiment [5] (6700 nM); -0.0295 ± 0.029 in experiment [5] (20000 nM); -0.014 ± 0.0085 in experiment [5] (60000 nM). In addition, the “level (log10)” value turned out to be 0.0035 ± 0.015 in experiment [6] (6700 nM); 0.0085 ± 0.0078 in experiment [6] (20000 nM); 0.008 ± 0.0071 in experiment [6] (60000 nM); 0.0175 ± 0.018 in experiment [7] (6700 nM); 0.0335 ± 0.005 in experiment [7] (20000 nM); 0.043 ± 0.071 in experiment [7] (60000 nM). Moreover, the “level (log10)” value in experiment [8] came to 0.0035 ± 0.043.

Regarding KF3CT:CXCL9/MIG, the “level (log10)” value in experiment [1] (6700 nM) was 0.018 ± 0.014; in experiment [1] (20000 nM), 0.0215 ± 0.023; in experiment [2] (6700 nM), -0.002 ± 0.0042; in experiment [2] (20000 nM) it was -0.0015 ± 0.011; in experiment [3] (6700 nM), 0.016 ± 0.018; in experiment [3] (20000 nM), 0.014 ± 0.0042. The “level (log10)” value in experiment [4] (6700 nM) is 0.007 ± 0.0085; in experiment [4] (20000 nM), -0.002 ± 0.0099; in experiment [4] (60000 nM), 0.0055 ± 0.0078; in experiment [5] (6700 nM), 0 ± 0.0057; in experiment [5] (20000 nM) it was 0.0005 ± 0.018; in experiment [5] (60000 nM), -0.005 ± 0.0099. In addition, the “level (log10)” value was -0.008 ± 0.0042 in experiment [6] (6700 nM); -0.009 ± 0.0028 in experiment [6] (20000 nM); -0.0045 ± 0.00071 in experiment [6] (60000 nM); 0.0025 ± 0.011 in experiment [7] (6700 nM); 0.0105 ± 0.00071 in experiment [7] (20000 nM); 0.0155 ± 0.023 in experiment [7] (60000 nM). Further, the “level (log10)” value in experiment [8] turned out to be 0.0015 ± 0.005.

The values are drawn from the supplement of paper PMC10331698.
